What was measured:
[1] = tested on: mammography-established dense breasts; experiment: Treatment of dense breasts: oral reduced TEMPOL in a person; type: in vivo, human
Description: The reduced form of TEMPOL (TEMPOL-H) or equivalent pharmacologically-active spin label/spintrap is prepared by mixing together 2 grams of TEMPOL or a pharmacologically effective amount of another spin-label or spin trap such as methynitrosopropane, 20 grams of ascorbic acid or other reducing compound in 100 ml of distilled water. The formulation is used as is. The solution is slightly-bitter. The formulation can be administered diluted in a suitable liquid such as juice, tea, or coffee. An equivalent dry form as 10 mg of tempol mixed with 100 mg of ascorbic acid or equivalent reducing substance can be easily prepared in capsule or tablet form.
One-half ml of the above solution, comprising 10 mg TEMPOL plus 100 mg ascorbic acid, was administered orally once a day to a 50 kg person with mammography-established dense breasts.

acute ischemic stroke = conditions: Shuaib et al. N Engl J Med 2007; cited from earlier work
breast density = experiment: Extemporaneous oral TEMPOL-H treatment for fibrocystic disease of breast; type: in vivo, human; conditions: patient

CC1(C)CC(O)CC(C)(C)N1[O] [Tempol, 4-hydroxy-2,2,6,6-tetramethylpiperidin-1-yloxy]
efficacy of unreduced Tempol itself ([1]; same doses as reduced TEMPOL (10 mg)): effective at the same doses

CC(C)(C)[N+]([O-])=Cc1ccc(S(=O)(=O)[O-])cc1S(=O)(=O)[O-].[Na+].[Na+] [NXY-059, disulfonyl PBN]
neuroprotective efficacy (acute ischemic stroke): effective in animal models, but not in humans

CC1(C)CC(O)CC(C)(C)N1O [TEMPOL-H, the hydroxylamine reduced form of the nitroxide 4-hydroxy-2,2,6,6-tetramethylpiperidin-1-yloxy]
clinical signs and symptoms upon cessation of treatment (breast density; after cessation of treatment): reappeared within a few weeks | clinical signs and symptoms upon resumption of treatment (breast density; after resumption of treatment): again regressed | clearing of breast density (breast density; oral formulation of TEMPOL-H): significant clearing of breast density | mammographic clearing of breast densities ([1]; 10 mg TEMPOL plus 100 mg ascorbic acid orally once a day, 50 kg person, first results after several weeks of treatment): significant mammographic clearing of breast densities | breast densities on cessation of treatment ([1]; cessation of treatment for a few weeks): eventually reappear on cessation of treatment for a few weeks | breast densities upon reinstatement of treatment ([1]; reinstatement of treatment): breast densities reoccur
